Reference: the OPERA property sets (Mansouri et al. 2018)

Structure (SMILES)	logP
Brc1cccc(-c2cnc(SCCc3c[nH]cn3)[nH]2)c1	3.76
O=[N+]([O-])c1cccc(-c2cnc(SCCc3c[nH]cn3)[nH]2)c1	2.43
Clc1ccc(-c2cnc(SCCc3c[nH]cn3)[nH]2)cc1	3.66
c1ccc(-c2cnc(SCCc3c[nH]cn3)[nH]2)cc1	2.62
O=S(=O)(Oc1ccc(-c2cnc(SCCc3c[nH]cn3)[nH]2)cc1)c1ccccc1	3.72
NC(=O)c1cccc(-c2cnc(SCCc3c[nH]cn3)[nH]2)c1	1.61

Second part, the compound after the results:

logP	Structure (SMILES)
4.09	CCCc1ccc(-c2cnc(SCCc3c[nH]cn3)[nH]2)cc1
1.4	NC(=O)c1ccc(-c2cnc(SCCc3c[nH]cn3)[nH]2)cc1
4.11	CCCCOc1ccc(-c2cnc(SCCc3c[nH]cn3)[nH]2)cc1
3.7	CCCc1cccc(-c2cnc(SCCc3c[nH]cn3)[nH]2)c1
2.75	O=[N+]([O-])c1ccc(-c2cnc(SCCc3c[nH]cn3)[nH]2)cc1
